In patent publication EP3485891A1, “WOUND TREATMENT COMPOSITION CONTAINING ULDAVIOSIDE A COMPOUND” (Elcubio Co., Ltd., priority 2016, dated 2018):

What was measured:
[1] = system: hack-induced animal tissue; assay: Histological change of hack wound tissue (H&E stain, Masson's trichrome stain); format: in vivo, Sprague-Dawley white rats
Description: In order to investigate a hack healing effect of the uldavioside A compound of the present invention, a histological change was observed using the hack-induced animal tissue.
The collected tissue was fixed by treatment with 10% formalin for 24 hours. The fixed tissue was embedded with paraffin, and cut into a 5 µm thickness to obtain tissue sections. The tissue sections were deparaffinized, hydrated, and washed, and then subjected to hematoxylin & eosin stain or Masson's trichrome stain.
Masson's trichrome stain is used to investigate collagen in the tissue, and collagenosis means that the wound in the dermis healed and the functions of the tissue were restored.

[2] = system: Sprague-Dawley white rats; assay: Full-thickness hack wound healing, visual observation and wound size quantification; format: in vivo; details: rat hind leg, 3 cm-diameter full-thickness hack, ointment containing 0.025 wt%, topical; days 3, 7, 10, 14; compared with the control (ointment without compound), FIG. 5
Description: In order to investigate a wound healing effect of the uldavioside A compound of the present invention, an animal experiment was conducted.
A hind leg of 7-8 week-old Sprague-Dawley white rats was shaved, and disinfected with 70% alcohol, and then a 3 cm-diameter circular full-thickness hack was made. After the full-thickness hack was made, the rats were randomly assigned and divided into a control treated without the uldavioside A compound of the present invention and a treatment group. For the treatment group, on the day of hack induction, the wound was treated with an ointment (Preparation Example 1-2 below) containing 0.025 wt% of the uldavioside A compound, wrapped with sterilized Korean traditional paper, and fixed with a band and a bandage to maintain a wet environment. For the control, the wound was treated with an ointment not containing the uldavioside A compound. Thereafter, on days 3, 7, 10, and 14 of wound induction, the wound site was observed, and the size of the wound site was quantified.

C2C12 cells [3] = assay: MTT assay, cytotoxicity; format: cell-based; details: 1 µM and 10 µM, 24 hours
Description: (§1) In order to investigate the activity of the uldavioside A compound of the present invention, animal cells were incubated. Here, C212 cells, as myoblasts, and NIH3T3 cells and human diploid fibroblasts (HDFs), as fibroblasts, were used as the animal cells. Each type of cells were incubated in a 5% CO2 incubator containing Dulbecco's modified eagle's medium (DMEM) supplemented with 10% fetal bovine serum (FBS), 100 U/mℓ penicillin, and 100 µg/mℓ streptomycin at 37 °C.
(§2) The cytotoxicity of the uldavioside A compound of the present invention was investigated using a 3-(4,5-dimethylthiazol-2-yl)-2,5-diphenyltetrazolium bromide (MTT) assay.
(§3) The C2C12 and NIH3T3 cells incubated in Experimental Example 1 above were dispensed at 1×10^5 cells per well in a 48-well plate and then incubated for 24 hours. Thereafter, DMEM medium containing 0.5% FBS, 100 U/mℓ penicillin, and 100 µg/mℓ streptomycin was placed therein, and then the cells were incubated for 18 hours. After the 18-hour incubation, the cells were treated with an uldavioside A compound at 1 µM and 10 µM and then incubated for 24 hours. Here, non-treated C2C12 and NIH3T3 cells were used as controls. After 24 hours, the cells were treated with an MTT solution at 100 µg/mℓ and incubated at 37 °C for 3 hours. Thereafter, the culture liquid was removed and the formed formazan precipitate was dissolved in 200 µℓ of dimethyl sulfoxide (DMSO), and then the absorbance was measured at 570 nm.

NIH3T3 cells [4] = assay: MTT assay, cytotoxicity; format: cell-based; details: 1 µM and 10 µM, 24 hours
Description: as §1, §2, §3

[5] = system: diabetes-induced animal models; assay: Diabetic ulcer healing, circular cut in streptozotocin-induced diabetic rats; format: in vivo, Sprague-Dawley white rats; details: dorsal circular cut 1 or 1.5 cm, ointment containing 0.025 wt%, topical, 8 days at intervals of 2 days, compared with the control, FIG. 9
Description: In order to investigate a diabetic ulcer healing effect of the uldavioside A compound of the present invention, an animal experiment was conducted.
7-week-old Sprague-Dawley white rats with a body weight of about 300 g were intraperitoneally injected with 60 mg/kg streptozotocin to induce diabetes. After three days, only white rates with a blood glucose level of 300 mg/dℓ or higher were selected by collecting venous blood from the tail vein and measuring the glucose level using a blood glucose meter. The dorsal part of each of the selected white rats was shaved, and a circular cut with a diameter of 1 or 1.5 cm was made on the dorsal part 4-5 cm away from the ear using a puncher. After the circular cut was made, the white rats were randomly assigned and divided into a control treated without the uldavioside A compound of the present invention and a treatment group. For the treatment group, on the day of circular cut induction, the cut was treated with an ointment containing 0.025 wt% of the uldavioside A compound (Preparation Example 1-2 below), wrapped with sterilized Korean traditional paper, and fixed with a band and a bandage to maintain a wet environment. For the control, the cut was treated with an ointment not containing the uldavioside A compound.

C2C12 cells [6] = assay: Wound healing (scratch) assay under inflammatory stress (LPS); format: cell-based; details: 10 µM, 1 hour pre-incubation, then 10 µg/mℓ LPS, 0, 12, 24 hours, compared with the controls (LPS only), FIG. 3A, 3B
Description: as §1
(§4) In order to investigate a wound healing effect according to the treatment with the uldavioside A compound of the present invention, a wound healing assay was conducted.
(§5) The C2C12 and NIH3T3 cells incubated in Experimental Example 1 above were dispensed at 1×10^6 cells per well in a 12-well plate, and then stabilized through incubation for 24 hours. Thereafter, DMEM medium containing 0.5% FBS, 100 U/mℓ penicillin, and 100 µg/mℓ streptomycin was placed therein, and then the cells were incubated for 18 hours. After the 18-hour incubation, a scratch with about 0.9 mm was made in the center of each well with growing cells, and the cells were treated with a 10 µM uldavioside A compound, followed by pre-incubation for 1 hour. After 1 hour, the cells were treated with 10 µg/mℓ lipopolysaccharide (LPS) for inflammatory stress stimulation, and then migration of the cells was observed while the cells were incubated. […]

NIH3T3 cells [7] = assay: as above; format: cell-based; details: 10 µM, 1 hour pre-incubation, then 10 µg/mℓ LPS, 0, 12, 24 hours, compared with the controls (LPS only), FIG. 3C, 3D, migration activity higher than in C2C12
Description: as §1, §4, §5

C2C12 cells [8] = assay: Wound healing (scratch) assay under glucose oxidative stress (glucose oxidase); format: cell-based; details: 10 µM, 7 mU/mℓ glucose oxidase, compared with the controls, FIG. 4A, 4B
Description: as §1
(§6) The C2C12 and NIH3T3 cells incubated in Experimental Example 1 above were dispensed at 1×10^6 cells per well in a 12-well plate, and then stabilized through incubation for 24 hours. Thereafter, DMEM medium containing 0.5% FBS, 100 U/mℓ penicillin, and 100 µg/mℓ streptomycin was placed therein, and then the cells were incubated for 18 hours. After the 18-hour incubation, a scratch with about 0.9 mm was made in the center of each well with growing cells, and the cells were treated with a 10 µM uldavioside A compound, followed by pre-incubation for 1 hour. […] Here, at 0, 12, and 24 hours, the cells were fixed with a fixative (2% formaldehyde and 0.2% glutaraldehyde) and stained with 0.3% crystal violet, and then, the migration of the cells was checked using a microscope, and the reduction in area due to the migration of the cells into a wounded site. […]

NIH3T3 cells [9] = assay: as above; format: cell-based; details: 10 µM, 7 mU/mℓ glucose oxidase, compared with the controls, FIG. 4, migration activity higher than in C2C12
Description: as §1, §6

HDF cells = assay: Cytoprotective activity against glucose oxidative stress in high-glucose environment (MTT); format: cell-based, human; details: 50 mM D-glucose, 10 µM and 20 µM, 7 mU/mℓ glucose oxidase, 24 hours, FIG. 8A
Description: as §1
(§7) The cytoprotective activity of the uldavioside A compound of the present invention against glucose oxidative stress was investigated.
(§8) The C2C12 cells and HDF cells incubated in Experimental Example 1 were dispensed at 1×10^5 per well in a 48-well plate, respectively, and then incubated for 24 hours. Thereafter, each well was treated with 50 mM D-glucose to create a high-glucose environment. Then, the cells were treated with the uldavioside A compound at 10 µM and 20 µM, and after 1 hour, were treated with 7 mU/mℓ glucose oxidase, followed by incubation for 24 hours. Here, non-treated C2C12 or HDF cells were used as control 1, high-glucose state cells were used as control 2, and high-glucose state cells treated with glucose oxidase were used as control 3. […] Thereafter, the culture liquid was removed and the formed formazan precipitate was dissolved in 200 µℓ of DMSO, and then the absorbance was measured at 570 nm.

β-catenin = assay: Immunohistochemistry of hack wound tissue sections; format: in vivo, Sprague-Dawley white rats; details: IHC, tissue sections on day 10, compared with the control, FIG. 7B
Description: (§9) In order to investigate a hack healing effect of the uldavioside A compound of the present invention, the expression changes of proteins associated with angiogenesis and tissue regeneration were observed.
(§10) The tissue sections on day 10, which were fabricated in Experimental Example 4-2 above, were deparaffinized, hydrated, and washed, and were then subjected to immunohistochemistry (IHC) using antibodies of vascular endothelial growth factor (VEGF) and CD31, which are proteins associated with angiogenesis in tissue, and basic fibroblast growth factor (bFGF) and β-catenin, which are proteins associated with tissue regeneration.

bFGF = assay: Immunohistochemistry of hack wound tissue sections; format: in vivo, Sprague-Dawley white rats; details: IHC, tissue sections on day 10, compared with the control, FIG. 7B
Description: as §9, §10

CD31 = assay: Immunohistochemistry of hack wound tissue sections; format: in vivo, Sprague-Dawley white rats; details: IHC, tissue sections on day 10, compared with the control, FIG. 7A
Description: as §9, §10

VEGF = assay: Immunohistochemistry of hack wound tissue sections; format: in vivo, Sprague-Dawley white rats; details: IHC, tissue sections on day 10, compared with the control, FIG. 7A
Description: as §9, §10

C2C12 cells [10] = assay: Cytoprotective activity against glucose oxidative stress in high-glucose environment (MTT); format: cell-based; details: 50 mM D-glucose, 10 µM and 20 µM, 7 mU/mℓ glucose oxidase, 24 hours, FIG. 8B
Description: as §1, §7, §8

OCC1(O)COC(Oc2cc(O)cc3c2CC(O)C(c2ccc(O)c(O)c2)O3)C1O (stereo not drawn) [uldavioside A compound, uldavioside A]
inflow of immune cells ([1]; H&E stain, day 3 after hack induction, ointment 0.025 wt%, FIG. 6(A)): reduced
angiogenesis and granulation tissues formation ([1]; H&E stain, day 7 after hack induction, ointment 0.025 wt%, FIG. 6(A)): actively progressing
proliferation of fibroblasts ([1]; H&E stain, day 10 after hack induction, ointment 0.025 wt%, FIG. 6(A)): active proliferation of fibroblasts were observed
amount of collagen stained ([1]; Masson's trichrome stain, day 7 after hack induction, compared with the control, FIG. 6(B)): remarkably increased
collagenosis ([1]; Masson's trichrome stain, day 17, FIG. 6(B)): collagenosis in most tissues
wound site (size of the wound site) [2]: started healing from day 7, and almost healed on day 14
cytotoxicity (C2C12 cells [3]; MTT): no cytotoxicity
cell viability (C2C12 cells [3]; compared with the controls (non-treated cells), FIG. 2A): increased
cytotoxicity (NIH3T3 cells [4]; MTT): no cytotoxicity
cell viability (NIH3T3 cells [4]; compared with the controls (non-treated cells), FIG. 2B): increased
wound site (wound size) [5]: started healing from day 4 and the wound size remarkably decreased
cell migration (C2C12 cells [6]): increased
cell migration (NIH3T3 cells [7]): increased
cell migration (C2C12 cells [8]): increased
cell migration (NIH3T3 cells [9]): increased
reduction in cell viability by glucose oxidative stress (HDF cells): inhibited in a dose-dependent manner
expression level of β-catenin (β-catenin): significantly increased
expression level of bFGF (bFGF): significantly increased
expression level of CD31 (CD31): significantly increased
expression level of VEGF (VEGF): significantly increased
reduction in cell viability by glucose oxidative stress (C2C12 cells [10]): inhibited in a dose-dependent manner
